Assay results as given in ChEMBL document CHEMBL4823243, “Synergistic induction of apoptosis in resistant head and neck carcinoma and leukemia by alkoxyamide-based histone deacetylase inhibitors” (Eur J Med Chem, 2021).
Active and inactive are the calls of the source. The calls are words filed in the database; no cut-off is given here.

Assays:
[1] = target: T1, Histone deacetylase (Homo sapiens) (UniProt Q13547+O15379+Q9UBN7+Q92769+Q9UQL6+Q8WUI4+Q9BY41+Q96DB2+P56524+Q9UKV0+Q969S8); assay: Inhibition of HDAC in human Cal27CisR cells assessed as combination index at 0.4 uM measured in presence of 20 uM cDDP by MTT-based Chou-Talalay method; format: cell-based
CAL-27 [2] = assay: Induction of apoptosis in cisplatin resistant human CAL-27 cells assessed as caspase 7 activation at 0.3 uM pretreated for 24 hrs followed by cisplatin treatment and further incubated for 18 hrs by Caspase3/7 detection reagent based assay; format: functional, cell-based; settings: time 42.0 hrs
[3] = target: T1, Histone deacetylase (Homo sapiens); assay: Inhibition of HDAC in human Cal27CisR cells assessed as combination index at 0.3 uM measured in presence of 50 uM cDDP by MTT-based Chou-Talalay method; format: cell-based
[4] = target: T1, Histone deacetylase (Homo sapiens); assay: Inhibition of HDAC in human Cal27CisR cells assessed as combination index at 0.2 uM measured in presence of 20 uM cDDP by MTT-based Chou-Talalay method; format: cell-based
[5] = target: T1, Histone deacetylase (Homo sapiens); assay: Inhibition of HDAC in human Cal27CisR cells assessed as combination index at 0.3 uM measured in presence of 10 uM cDDP by MTT-based Chou-Talalay method; format: cell-based
[6] = target: T1, Histone deacetylase (Homo sapiens); assay: Inhibition of HDAC in human CAL-27 cells assessed as combination index at 0.25 uM measured in presence of 10 uM cDDP by MTT-based Chou-Talalay method; format: cell-based
HL-60 [7] = assay: Induction of apoptosis in human HL-60 cells assessed as caspase 3/7 activation at IC75 concentration incubated at 48 hrs; format: functional
[8] = target: T1, Histone deacetylase (Homo sapiens); assay: Inhibition of HDAC in human Cal27CisR cells assessed as combination index at 0.6 uM measured in presence of 20 uM cDDP by MTT-based Chou-Talalay method; format: cell-based
[9] = target: T1, Histone deacetylase (Homo sapiens); assay: Inhibition of HDAC in human CAL-27 cells assessed as potentiation of cisplatin-induced cytotoxicity by measuring fold reduction in cisplatin IC50 at 0.3 to 0.5 uM pretreated for 48 hrs followed by cisplatin addition and measured after 72 hrs by MTT assay relative to cisplatin alone; format: cell-based; settings: dose 0.3-0.5 µM, time 120.0 hrs
HL-60 [10] = assay: Induction of apoptosis in human HL-60 cells assessed as caspase 3/7 activation incubated for 48 hrs by Caspase3/7 detection reagent based assay; format: functional, cell-based; settings: HL-60, 48 h
[11] = target: T1, Histone deacetylase (Homo sapiens); assay: Inhibition of HDAC in human CAL-27 cells assessed as combination index at 0.2 uM measured in presence of 5 uM cDDP by MTT-based Chou-Talalay method; format: cell-based
[12] = target: T1, Histone deacetylase (Homo sapiens); assay: Inhibition of HDAC in human Cal27CisR cells assessed as combination index at 0.6 uM measured in presence of 50 uM cDDP by MTT-based Chou-Talalay method; format: cell-based
[13] = target: T1, Histone deacetylase (Homo sapiens); assay: Inhibition of HDAC in human CAL-27 cells assessed as combination index at 0.25 uM measured in presence of 2 uM cDDP by MTT-based Chou-Talalay method; format: cell-based
[14] = target: T1, Histone deacetylase (Homo sapiens); assay: Inhibition of HDAC in human CAL-27 cells assessed as combination index at 0.1 uM measured in presence of 5 uM cDDP by MTT-based Chou-Talalay method; format: cell-based
[15] = target: T1, Histone deacetylase (Homo sapiens); assay: Inhibition of HDAC in human CAL-27 cells assessed as combination index at 0.2 uM measured in presence of 2 uM cDDP by MTT-based Chou-Talalay method; format: cell-based
[16] = target: T1, Histone deacetylase (Homo sapiens); assay: Inhibition of HDAC in human Cal27CisR cells assessed as combination index at 3 uM measured in presence of 10 uM cDDP by MTT-based Chou-Talalay method; format: cell-based
CAL-27 [17] = assay: Induction of apoptosis in human CAL-27 cells assessed as caspase 3 activation at 2 uM in presence of pretreated for 24 hrs followed by cisplatin treatment and further incubated for 18 hrs by Caspase3/7 detection reagent based assay; format: functional, cell-based; settings: time 42.0 hrs
[18] = target: T1, Histone deacetylase (Homo sapiens); assay: Inhibition of HDAC in human Cal27CisR cells assessed as combination index at 3 uM measured in presence of 20 uM cDDP by MTT-based Chou-Talalay method; format: cell-based
[19] = target: T1, Histone deacetylase (Homo sapiens); assay: Inhibition of HDAC in human Cal27CisR cells assessed as combination index at 2 uM measured in presence of 50 uM cDDP by MTT-based Chou-Talalay method; format: cell-based
[20] = target: T1, Histone deacetylase (Homo sapiens); assay: Inhibition of HDAC in human Cal27CisR cells assessed as potentiation of cisplatin-induced cytotoxicity by measuring fold reduction in cisplatin IC50 at 2 to 3 uM pretreated for 48 hrs followed by cisplatin addition and measured after 72 hrs by MTT assay relative to cisplatin alone; format: cell-based; settings: dose 2-3 µM, time 120.0 hrs
Histone deacetylase [21] = assay: Inhibition of HDAC in human CAL-27 cells assessed as potentiation of cisplatin-induced cytotoxicity by measuring cisplatin IC50 at 2 to 3 uM pretreated for 48 hrs followed by cisplatin addition and measured after 72 hrs by MTT assay (reference value: 3.57 uM); format: cell-based
CAL-27 [22] = assay: Induction of apoptosis in cisplatin resistant human CAL-27 cells assessed as caspase 3 activation at 2 uM pretreated for 24 hrs followed by cisplatin treatment and further incubated for 18 hrs by Caspase3/7 detection reagent based assay; format: functional, cell-based; settings: time 42.0 hrs
[23] = target: T1, Histone deacetylase (Homo sapiens); assay: Inhibition of HDAC in human Cal27CisR cells assessed as combination index at 3 uM measured in presence of 50 uM cDDP by MTT-based Chou-Talalay method; format: cell-based
[24] = target: T1, Histone deacetylase (Homo sapiens); assay: Inhibition of HDAC in human CAL-27 cells assessed as combination index at 0.75 uM measured in presence of 10 uM cDDP by MTT-based Chou-Talalay method; format: cell-based
CAL-27 [25] = assay: Induction of apoptosis in human CAL-27 cells assessed as caspase 7 activation at 2 uM in presence of pretreated for 24 hrs followed by cisplatin treatment and further incubated for 18 hrs by Caspase3/7 detection reagent based assay; format: functional, cell-based; settings: time 42.0 hrs
[26] = target: T1, Histone deacetylase (Homo sapiens); assay: Inhibition of HDAC in human CAL-27 cells assessed as combination index at 2 uM measured in presence of 10 uM cDDP by MTT-based Chou-Talalay method; format: cell-based
[27] = target: T1, Histone deacetylase (Homo sapiens); assay: Inhibition of HDAC in human CAL-27 cells assessed as combination index at 0.5 uM measured in presence of 10 uM cDDP by MTT-based Chou-Talalay method; format: cell-based
[28] = target: T1, Histone deacetylase (Homo sapiens); assay: Inhibition of HDAC in human Cal27CisR cells assessed as combination index at 0.75 uM measured in presence of 50 uM cDDP by MTT-based Chou-Talalay method; format: cell-based
Histone deacetylase [29] = assay: Inhibition of HDAC in human Cal27CisR cells assessed as potentiation of cisplatin-induced cytotoxicity by measuring cisplatin IC50 at 2 to 3 uM pretreated for 48 hrs followed by cisplatin addition and measured after 72 hrs by MTT assay (reference value: 3.57 uM); format: cell-based
[30] = target: T1, Histone deacetylase (Homo sapiens); assay: Inhibition of HDAC in human Cal27CisR cells assessed as combination index at 2 uM measured in presence of 20 uM cDDP by MTT-based Chou-Talalay method; format: cell-based

CI [1] | CI [3] | CI [4] | CI [5] | CI [6] | CI [8] | CI [11] | CI [12] | SMILES | Activity (CAL-27 [2]) | Ratio IC50 [9] | also measured
0.26 | 0.44 | 0.55 | 0.16 | 0.03 | 0.45 | 1.11 | 0.38 | O=C(CCCCCONC(=O)c1ccc2ccccc2n1)NO | Active | 3.2 | IC75 (HL-60 [7]): 320 nM; IC50 (HL-60 [10]): 214 nM
0.14 | 0.47 | 0.43 | 1.17 | 0.03 | 0.24 | 0.09 | 0.41 | O=C(CCCCCONC(=O)c1cc2ccccc2[nH]1)NO | Active | 2.73 | CI [13]: 0.37; CI [14]: 0.53; CI [15]: 0.63
 |  |  |  |  |  |  |  | O=C(CCCCCONC(=O)c1nccc2ccccc12)NO |  |  | CI [16]: 0.24; Activity (CAL-27 [17]): Active; CI [18]: 0.21; CI [19]: 0.42; Ratio IC50 [20]: 10; IC50 (Histone deacetylase [21]): 1100 nM; Activity (CAL-27 [22]): Active; CI [23]: 0.39; CI [24]: 0.51; Activity (CAL-27 [25]): Active; CI [26]: 0.14; CI [27]: 0.58; CI [28]: 0.56; IC50 (Histone deacetylase [29]): 4840 nM; CI [30]: 0.35
